# Molecular target: T1, human 5-HT2A (h5-HT2A) receptor (Homo sapiens, UniProt P28223)
# T1 construct: expressed in transfected cells; host or cells: HEK293 (HTR2A&Ga15-HEK293, tetracycline-induced)
# Assay: FLIPR assay: human 5-HT2A (agonist mode)
# Type: cell-based
# Details: for RFU@10 μM: @10 μM (head), footnote: curve fitting with activation (%) @ 10 mM with RFU, RFU=Fmax−Fmin; for EC50: FLIPR calcium, agonist mode, HTR2A&Gα15-HEK293 cells, ND: not detected
# Description: Assessment of the effect of exemplary compounds of Formula I targeting on human 5-HT2A (h5-HT2A) receptor under agonist mode.
# HTR2A&Ga15-HEK293 cells were cultured in DMEM medium containing 10% dialyzed FBS and 1x penicillin-streptomycin, 100 μg/mL Hygromycin B and 300 μg/mL G418. The cells were passaged about three times a week, maintained between ~30% to ~90% confluence.
# • 1. The cell culture medium (DMEM medium containing 10% dialyzed FBS and 1× penicillin-streptomycin, 100 μg/mL Hygromycin B and 300 μg/mL G418), TrypLE™ Express and DPBS to R.T. was warmed in advance. • 2. For induction, 1 μg/ml tetracycline (final concentration) was added to cell culture medium and incubated for 48 hours prior to seeding cells into plate at 37° C., 5% (v/v) CO2. The cell culture medium was removed from flask. Cells were washed with DPBS. • 3. 2 mL TrypLE™ Express was added to the flask, mixed well by gentle shaking and cells were incubated at 37° C. for a few minutes. • The cells were checked for morphological change under microscope, the digestion was stopped by adding 4 mL cell culture medium to the flask when most of cells turned to round. • 5. The cell suspension was transferred into a 15 mL centrifuge tube, and then centrifuged at 1,200 rpm for 5 minutes. • 6. The supernatant was removed. The cell pellet was resuspended with 2 mL cell culture medium. • 7. The cell density was counted using cell counter. Only cells with >85% viability were used for the assay. • 8. Cells were diluted to 6.67×10^5/mL with cell culture medium. • 9. 30 μL/well cell suspensions added into a 384-well cell plate (The cell density was 20,000 cells/well). • 10. The cell plate was incubated overnight at 37° C., 5% (v/v) CO2. 2.3 Cell handling • 1. On the day of experiments, culture medium was removed from the cell plate. • 2. 10 μL of assay buffer (20 mM HEPES, in 1×HBSS, pH 7.4) was added to each well of the cell plate. • 3. 2×dye solution was prepared following the manual of the FLIPR® Calcium 6 Assay Kit: • i. The dye was diluted with assay buffer. • ii. Probenecid was added to the final concentration of 5 mM. • iii. Vortexed vigorously for 1-2 minutes. • 4. 10 μL of 2× dye solution was added to each well of the cell plate • 5. The cell plate was placed on plate shaker, followed by shaking at 600 rpm for 2 minutes. • 6. The plate was incubated at 37° C. for 2 hours followed by an additional 15-minute incubation at 25° C. 2.4 Prepare 3×compound • 1. Serotonin HCl was prepared to the concentration of 10 mM with DMSO. • 2. The test compounds were prepared to the concentration of 10 mM with DMSO. • 3. The compounds were added to a 384-well compound source plate. • 4. 3-folds serial dilutions were performed with DMSO. • 5. 90 nL/well of serial diluted compounds was transferred from source plate to a 384-well compound plate by using an Echo. • 6. 30 μL/well of assay buffer (20 mM HEPES in 1x HBSS, pH 7.4) was added to the compound plate. • 7. The plate was mixed on-plate shaker for 2 minutes.
# • 1. After the cells were incubated with dye solution, the cell plate, compound plate containing 3×compounds and FLIPR tips were placed into FLIPR. • 2. 10 μL of 3×compounds transferred from the compound plate to the cell plate by FLIPR. • 3. The plate was read for 160 sec with 1 sec interval and the data of agonist mode was obtained.
# • 1. The normalized fluorescence reading (RFU) was calculated as shown below, wherein Fmax and Fmin stand for maximum and minimum of calcium signal during defined time window:
# RFU=Fmax−Fmin • 2. EC50 by fitting RFU against log of compound concentrations with Hill equation was calculated using XLfit.
# The following procedure can also be followed: • 1. Cells are cultured in cell culture medium (DMEM containing 10% FBS, 1× penicillin-streptomycin 300 μg/ml G418 and 100 μg/ml hygromycin B) at 37° C., 5% (v/V) CO2. • 2. One day before the assays, the cells are detached using TrypLE™ Express and cells are counted using cell counter.
# T1 sequence (P28223 whole entry): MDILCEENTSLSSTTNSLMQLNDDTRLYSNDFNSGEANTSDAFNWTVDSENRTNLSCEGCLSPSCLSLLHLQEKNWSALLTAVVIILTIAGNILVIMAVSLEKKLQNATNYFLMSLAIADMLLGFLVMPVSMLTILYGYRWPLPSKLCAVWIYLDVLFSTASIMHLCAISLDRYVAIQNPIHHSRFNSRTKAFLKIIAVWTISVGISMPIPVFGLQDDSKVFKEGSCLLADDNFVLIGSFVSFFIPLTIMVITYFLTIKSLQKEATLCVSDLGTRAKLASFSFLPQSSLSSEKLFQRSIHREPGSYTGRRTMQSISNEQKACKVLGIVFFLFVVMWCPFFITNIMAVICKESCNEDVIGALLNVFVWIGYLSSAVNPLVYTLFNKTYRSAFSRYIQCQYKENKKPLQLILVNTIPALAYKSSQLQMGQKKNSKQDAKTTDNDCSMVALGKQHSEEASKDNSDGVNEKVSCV
SMILES,RFU@10 μM [RFU],EC50 [nM]
"[2H]C([2H])([2H])N1CCC[C@@H]1C([2H])([2H])N1CCc2ccccc21 [(R)-I-1, (R)-1-((1-(Methyl-d3)pyrrolidin-2-yl)methyl-d2) indoline]",386,3550
"[2H]C([2H])([2H])Oc1ccc2c(c1)N(C([2H])([2H])[C@H]1CCCN1C([2H])([2H])[2H])CC2 [(R)-I-28, (R)-6-(Methoxy-d3)-1-((1-(methyl-d3)pyrrolidin-2-yl)methyl-d2) indoline]",3744,1090
"COc1cc2c(cc1OC)N(C[C@H]1CCCN1C)CC2 [(R)-I-34, (R)-5,6-dimethoxy-1-((1-methylpyrrolidin-2-yl)methyl) indoline]",268,–
"COc1cccc2c1N(C[C@H]1CCCN1C)CC2 [(R)-I-46, (R)-7-Methoxy-1-((1-methylpyrrolidin-2-yl)methyl) indoline]",487,1140
"COc1cccc2c1CCN2C[C@H]1CCCN1C [(R)-I-47, (R)-4-Methoxy-1-((1-methylpyrrolidin-2-yl)methyl) indoline]",174,–
"[2H]C([2H])([2H])N1CCC[C@@H]1C([2H])([2H])N1CCc2ccc(OC)cc21 [(R)-I-57, (R)-6-Methoxy-1-((1-(methyl-d3)pyrrolidin-2-yl)methyl-d2) indoline]",749,422
"COc1ccc2c(c1)N(C[C@H]1CCCN1C)CC2 [(R)-I-58, (R)-6-Methoxy-1-((1-methylpyrrolidin-2-yl)methyl) indoline]",796,322
"COc1ccc2c(c1)N(C[C@H]1CCCN1)CC2 [(R)-I-59, (R)-6-Methoxy-1-(pyrrolidin-2-ylmethyl) indoline]",801,1210
"[2H]C([2H])([2H])N(CCN1CCc2ccc(OC)cc21)C([2H])([2H])[2H] [Compound I-70, 2-(6-Methoxyindolin-1-yl)-N, N-bis(methyl-d3) ethan-1-amine]",303,–
"[2H]C([2H])([2H])N(CCN1CCc2ccccc21)C([2H])([2H])[2H] [Compound I-71, 2-(Indolin-1-yl)-N,N-bis(methyl-d3) ethan-1-amine]",280,–
